This passage reports surface charge and solubility in water results from US11425924B2, “Composition and method for controlled-release of amino acids” (Glanbia Nutritionals, Ltd., priority 2018, dated 2022).

Values after ≈ are worked out from the molar mass of the structure shown.

Data set [1] in a line: Zeta potential measurements. It counts as physicochemical. To be noted: uncoated. The protocol:
Zeta potential analysis was performed in on a NanoBrook ZetaPlus Zeta Plus instrument from Brookhaven Instruments.

For data set [2] the following is noted: except at very acidic pH; cited from earlier work.

As for `CC(C)C[C@H](N)C(=O)O` [Leucine (L-Leucine), L-Leucine], in data set [1], the surface charge result is “positive charge”. Besides, the solubility in water in data set [2] is 24.3 mg/mL (≈ 185 mM).
